Data set [1] in a line: geometrical particle size distribution (PSD) by laser diffraction. Conditions: mean ± SD, n = 3. Format: physicochemical. The procedure:
The geometrical PSD of bulk cisplatin, cisplatin microparticles from the size-reduction process, and cisplatin dry powder formulation, was measured as suspended and individualized particles. This was done using a Mastersizer 3000 laser diffractometer (Malvern Instruments Ltd., Worcestershire, UK) connected to a Hydro MV dispenser equipped with a 40 W ultrasonic probe (Malvern Instruments Ltd.). Measurements of bulk cisplatin and aliquots of cisplatin microparticles from the size-reduction process were performed in cisplatin-saturated isopropanol. […] The geometrical PSD of bulk cisplatin, cisplatin microparticles from the size-reduction process, and cisplatin dry powder formulation, was measured as suspended and individualized particles as described in the Example 1 and are presented in table 2.

The test system of data set [2] is M109-HiFR-LUC2 cells. Briefly: tumor growth by in vivo bioluminescence in orthotopic lung cancer mice model. The arrangement: species or system BALB/c mice. Conditions: Example 4; p<0.05 for combination, p>0.05 for cisplatin IV. The protocol: The orthotopic intrapulmonary implantation procedure was performed using an adaption of the protocol described previously (Wauthoz et al., Nanomedicine 2015). Briefly, under anesthesia, 6 to 7-week-old BALB/c mice were grafted with 1.4 million M109-HiFR-LUC2 cells in 20 μL of a 50:50 v/v mix of folate-free RPMI/Matrigel® injected intercostally after incision of the skin and dissection of subcutaneous muscles. The different tissue incisions were stitched with a 3-0 silk (Ethicon®, St-Stevens-Woluwe, Belgium). The mice were closely observed until complete recovery. The therapeutic response of the M109 model to cisplatin was evaluated by in vivo optical imaging (bioluminescence) and survival analysis. Bioluminescence is directly proportional to the number of living M109-HiFR-LUC2 tumor cells. […]
The protocol described in example 3 has been reproduced, except that survival rates were also determined (no euthanasia on day 19 and no ex vivo bioluminescence analysis), the treatment started on day 6 according to the scheme table 3 below and that three groups of 4-15 mice were compared: […]
The protocol described in example 3 has been reproduced, except that survival rates were also determined (no euthanasia on day 19 and no ex vivo bioluminescence analysis), the treatment started on day 3 according to the scheme table 5 below and three groups of 8-16 mice were compared: […]

Data set [3] has as its system M109-HiFR-LUC2 cells. Briefly: ex vivo bioluminescence analysis of tumor localization (resected lungs vs chest cavity). Format: in vivo, BALB/c mice. Conditions: Example 3 additional experiment, day 19 post engraftment.
Procedure: Briefly, under anesthesia, 6 to 7-week-old BALB/c mice were grafted with 1.4 million M109-HiFR-LUC2 cells in 20 μL of a 50:50 v/v mix of folate-free RPMI/Matrigel® injected intercostally after incision of the skin and dissection of subcutaneous muscles. The different tissue incisions were stitched with a 3-0 silk (Ethicon®, St-Stevens-Woluwe, Belgium). The mice were closely observed until complete recovery. The therapeutic response of the M109 model to cisplatin was evaluated by in vivo optical imaging (bioluminescence) and survival analysis. Bioluminescence is directly proportional to the number of living M109-HiFR-LUC2 tumor cells. Bioluminescence was performed up to day 19 post tumor cell engraftment using a Photonlmager RT (Biospace Lab, France) using the conventional supplier's protocol. Mice were weighted three times a week and sacrificed if their weight loss exceeded 20% from the beginning of the experiment or 15% from the last measurement or if they were suffocating. In these cases, the mouse death was notified as occurred the day after.
An additional experiment was performed evaluating cisplatin DPI according to example 1 vs cisplatin IV on the same lung cancer mice model. […]
[4] abbreviates: Table 1, materials of Example 1.
Where [5] appears, read: Table 2, materials of Example 2.

The structures appear in SMILES notation.

As for `N.N.[Cl][Pt][Cl]` [Raw cisplatin, cisplatin], in data set [1] (setting [4]), the “D50 (volume median diameter)” value was determined as 16.5 ± 3.6 μm and the “D[4,3] (volume mean diameter)” value is 18.9 ± 4.3 μm. Also, in data set [1] (setting [5]), the “D50 (volume median diameter)” value is on record as 6.3 ± 0.1 μm and the “D[4,3] (volume mean diameter)” value turned out to be 7.1 ± 0.2 μm.

For the compound `N.N.[Cl][Pt][Cl]` [cisplatin IV, cisplatin], the “significance of the decrease in tumor growth versus untreated control (1-way ANOVA)” value in the data set with M109-HiFR-LUC2 cells [2] is on record as “not”. Moreover, in the data set on M109-HiFR-LUC2 cells [3] (chest cavity = loco-regional metastases), the “tumor growth in the chest, cisplatin IV compared with cisplatin DPI (FIG. 3)” value is “decrease of tumor growth in the chest”. The “tumor growth in the lungs, cisplatin IV compared with cisplatin DPI (FIG. 3)” value in the data set on M109-HiFR-LUC2 cells [3] (resected lungs = primary lung tumors) is listed as “similar”.

Values taken from patent US20220023552A1, “KIT FOR INHALED CHEMOTHERAPY, AND TREATMENT OF LUNG CANCER WITH SAID KIT” (UNIVERSITÉ LIBRE DE BRUXELLES, priority 2018, published 2022).
